Data: the NIST ThermoML archive (doi:10.1021/je050169y)

Columns and labels:
[1] = xn = mol fraction of the nth substance listed; details: 101 kPa, Liquid
[2] = 101 kPa, Liquid

CCCO [propan-1-ol] + ClC(Cl)Cl
[1], x2 = 0
Details | mass density [kg/m3] | speed of sound [m/s] | viscosity [mPa·s]
303.15 K | 796.66 | 1193 | 1.719
313.15 K | 788.31 | 1159 | 1.363

ClC(Cl)Cl [trichloromethane]
[2]
Details | mass density [kg/m3] | speed of sound [m/s] | viscosity [mPa·s]
303.15 K | 1469.21 | 969 | 0.534
313.15 K | 1449.74 | 934 | 0.491

ClC(Cl)Cl [trichloromethane] + CCCCO
[1]
Details | mass density, 303.15 K [kg/m3] | mass density, 313.15 K [kg/m3] | speed of sound, 303.15 K [m/s] | speed of sound, 313.15 K [m/s] | viscosity, 303.15 K [mPa·s] | viscosity, 313.15 K [mPa·s]
x1 = 0.0512 | – | 823.95 | – | 1172 | – | 1.67
x1 = 0.0513 | 832.44 | – | 1207 | – | 2.125 | –
x1 = 0.0999 | 861.44 | – | 1189 | – | 1.989 | –
x1 = 0.1 | – | 852.45 | – | 1154 | – | 1.566
x1 = 0.149 | 890.91 | 881.47 | 1170 | 1135 | 1.829 | 1.45
x1 = 0.2009 | 922.47 | 912.53 | 1152 | 1116 | 1.683 | 1.341
x1 = 0.2506 | 953.06 | 942.58 | 1134 | 1098 | 1.531 | 1.23
x1 = 0.2999 | 983.75 | 972.85 | 1118 | 1081 | 1.394 | 1.136
x1 = 0.3659 | 1025.5 | 1013.85 | 1097 | 1060 | 1.224 | 1.018
x1 = 0.407 | 1051.86 | 1039.75 | 1084 | 1047 | 1.137 | 0.943
x1 = 0.4515 | 1080.69 | 1067.95 | 1071 | 1034 | 1.045 | 0.878
x1 = 0.4997 | 1112.25 | 1099 | 1056 | 1019 | 0.96 | 0.82
x1 = 0.5502 | 1145.88 | 1132.03 | 1043 | 1006 | 0.877 | 0.758
x1 = 0.6011 | 1180.26 | – | 1030 | – | 0.82 | –
x1 = 0.6012 | – | 1165.78 | – | 993 | – | 0.712
x1 = 0.6527 | 1215.51 | 1200.35 | 1018 | 981 | 0.754 | 0.671
x1 = 0.702 | 1249.87 | – | 1007 | – | 0.709 | –
x1 = 0.7021 | – | 1234 | – | 970 | – | 0.633
x1 = 0.7519 | 1285.1 | 1268.52 | 997 | 961 | 0.676 | 0.615
x1 = 0.802 | 1320.98 | – | 989 | – | 0.636 | –
x1 = 0.8021 | – | 1303.85 | – | 952 | – | 0.579
x1 = 0.8517 | 1357.17 | – | 981 | – | 0.622 | –
x1 = 0.8518 | – | 1339.4 | – | 945 | – | 0.572
x1 = 0.9023 | 1394.7 | – | 975 | – | 0.587 | –
x1 = 0.9024 | – | 1376.18 | – | 939 | – | 0.547
x1 = 0.9509 | 1431.43 | – | 971 | – | 0.569 | –
x1 = 0.951 | – | 1412.42 | – | 936 | – | 0.524
x1 = 1 | 1469.21 | 1449.74 | 969 | 934 | 0.534 | 0.491

CCCCO [butan-1-ol] + ClC(Cl)Cl
[1], x2 = 0
Details | mass density [kg/m3] | speed of sound [m/s] | viscosity [mPa·s]
303.15 K | 802.31 | 1227 | 2.274
313.15 K | 794.37 | 1193 | 1.783

CCCCO [butan-1-ol]
[2]
Details | mass density [kg/m3] | speed of sound [m/s] | viscosity [mPa·s]
303.15 K | 802.31 | 1227 | 2.274
313.15 K | 794.37 | 1193 | 1.783

ClC(Cl)Cl [trichloromethane] + CCCO
[1]
Details | mass density, 303.15 K [kg/m3] | mass density, 313.15 K [kg/m3] | speed of sound, 303.15 K [m/s] | speed of sound, 313.15 K [m/s] | viscosity, 303.15 K [mPa·s] | viscosity, 313.15 K [mPa·s]
x1 = 0.0521 | 834.23 | 825.28 | 1171 | 1136 | 1.628 | 1.302
x1 = 0.0996 | 868.17 | 858.68 | 1153 | 1117 | 1.541 | 1.243
x1 = 0.1504 | 904.1 | 894.03 | 1134 | 1098 | 1.435 | 1.163
x1 = 0.201 | 939.51 | 928.92 | 1116 | 1080 | 1.331 | 1.077
x1 = 0.2498 | 973.47 | 962.29 | 1100 | 1064 | 1.233 | 1.013
x1 = 0.3057 | 1011.95 | 1000.09 | 1083 | 1047 | 1.113 | 0.919
x1 = 0.3499 | 1042.15 | 1029.85 | 1070 | 1034 | 1.044 | 0.872
x1 = 0.4031 | 1078.28 | 1065.26 | 1056 | 1018 | 0.956 | 0.811
x1 = 0.451 | 1110.46 | 1097 | 1042 | 1006 | 0.884 | 0.752
x1 = 0.5056 | 1147.02 | 1132.88 | 1028 | 992 | 0.813 | 0.703
x1 = 0.5541 | 1179.18 | 1164.5 | 1017 | 981 | 0.76 | 0.662
x1 = 0.5994 | 1209.1 | 1193.91 | 1007 | 972 | 0.723 | 0.635
x1 = 0.6511 | 1243.11 | 1227.27 | 997 | 961 | 0.68 | 0.605
x1 = 0.7033 | 1277.26 | 1260.87 | 988 | 951 | 0.654 | 0.592
x1 = 0.7506 | 1308.1 | 1291.08 | 980 | 944 | 0.629 | 0.57
x1 = 0.8 | 1340.17 | 1322.66 | 974 | 939 | 0.608 | 0.558
x1 = 0.8507 | 1373.01 | 1354.88 | 970 | 933 | 0.596 | 0.547
x1 = 0.9001 | 1404.92 | 1386.24 | 967 | 931 | 0.579 | 0.531
x1 = 0.9484 | 1436.03 | 1416.96 | 966 | 931 | 0.562 | 0.517
x1 = 1 | 1469.21 | 1449.74 | 969 | 934 | 0.534 | 0.491

CCCO [propan-1-ol]
[2]
Details | mass density [kg/m3] | speed of sound [m/s] | viscosity [mPa·s]
303.15 K | 796.66 | 1193 | 1.719
313.15 K | 788.31 | 1159 | 1.363
